In PubChem BioAssay (NCI) one finds GI50 and TGI data, which are given here for 17 compounds.

What all share (experiment): NCI-60 cell line screen, 48 h
Test [1] relates to BT-549 breast.
Test [2] concerns T-47D breast.
The test system of test [3] is HS 578T breast.
Test [4] deals with NCI/ADR-RES ovarian.

The structures appear in SMILES notation.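 Compound exposure: 48 hours, 5 concentrations, 96-well plates. GI50: concentration for 50% inhibition of growth. The concentration for full growth arrest is given as TGI.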

On to `CC[C@]1(O)C[C@@H]2CN(Cc3c([nH]c4ccccc34)[C@@](C(=O)OC)(c3cc4c(cc3OC)N(C)[C@H]3[C@@](O)(C(=O)OC)[C@H](OC(C)=O)[C@]5(CC)[C@@H]6C[C@@H]6CN6CC[C@]43[C@@H]65)C2)C1`, for which the GI50 in test [1] is 0.365 µM; in test [2], 0.0562 µM; in test [3], 0.0858 µM; in test [4], > 4.38 µM. Moreover, the TGI in test [1] is > 4.38 µM; in test [2], > 4.38 µM; in test [3] it was > 1.33 µM; in test [4] it was > 4.38 µM.
With `COc1ccccc1/C=C1\COc2ccc(O)c(O)c2C1=O`, the GI50 in test [1] is 2.48 µM; in test [2], 2.47 µM; in test [3], 3.6 µM; in test [4], 1.88 µM. For the same compound, the TGI in test [1] is 7.53 µM; in test [2] it was > 100 µM; in test [3] it was > 100 µM; in test [4], 6.64 µM.
For `COc1ccc(CCNc2nc3ccccc3c3[nH]c4ccccc4c23)cc1OC`, the GI50 in test [1] was 12.1 µM; in test [2] it was 15.3 µM; in test [3] it was 2.54 µM; in test [4] it was 4.73 µM. Moreover, the TGI in test [1] turned out to be 26.3 µM; in test [2] it was 34.2 µM; in test [3], 6.17 µM; in test [4], 26 µM.
Regarding `Cc1ncc(C(=O)Nc2ccc(CN3CCN(C)CC3)c(C(F)(F)F)c2)cc1C#Cc1c(N)ncc2ccc(C#N)cc12`, the GI50 in test [1] is 2.71 µM; in test [2], > 14.5 µM; in test [3], 0.572 µM; in test [4] it was 5.06 µM. The TGI in test [1] is 11.2 µM; in test [2], > 50 µM; in test [3], 4.93 µM; in test [4] it was 16.8 µM.
On to `C=C1C(=O)OC(CCCCCCCC)C1C(=O)O` (stereo not given), for which the GI50 in test [1] is 12.6 µM; in test [2], 12.3 µM; in test [3], 17.3 µM; in test [4] it was 21.6 µM. Further, the TGI in test [1] is 26.6 µM; in test [2] it was 30.6 µM; in test [3], > 86.6 µM; in test [4] it was 59.7 µM.
In the case of `O=C(Nc1ccc(Cl)c(Cl)c1)Nc1ccc(Cl)c([N+](=O)[O-])c1`, the GI50 in test [1] is 1.87 µM; in test [2], 0.729 µM; in test [3], 3.65 µM; in test [4], 1.02 µM. Besides, the TGI was 5.33 µM in test [1], 2.83 µM in test [2], 16.1 µM in test [3] and 6.09 µM in test [4].
Consider `COc1ccc(NC(=O)c2ccc(NC3=C(Cl)C(=O)N(Cc4ccccc4)C3=O)cc2)cc1`, for which the GI50 is 8.27 µM in test [1], 9.79 µM in test [2], 15 µM in test [3] and 11.9 µM in test [4]. In addition, the TGI was found to be 26.2 µM in test [1], 77.5 µM in test [2], 62.9 µM in test [3] and 38.7 µM in test [4].
For the compound `FC(F)(F)c1ccc2nc(-c3nc(-c4ccccc4)n4ccccc34)[nH]c2c1`, the GI50 was 4.23 µM in test [1], 1.71 µM in test [2], 3.65 µM in test [3] and 3.71 µM in test [4]. Also, the TGI turned out to be 63.4 µM in test [1], 16.9 µM in test [2], 33.6 µM in test [3] and 38.5 µM in test [4].
For `Cn1cc(-c2ccc3cc(-c4ccc(CC(=O)Nc5cc(C(C)(C)C)nn5C)cc4)cnc3c2)cn1`, the GI50 is 0.262 µM in test [1], 0.209 µM in test [2], 0.187 µM in test [3] and 0.355 µM in test [4]. Further, the TGI in test [1] is 2.38 µM; in test [2], 4.81 µM; in test [3], > 100 µM; in test [4], > 100 µM.
Turning to `COc1cc[c]([Hg][Cl])cc1`, the GI50 in test [1] is 2.97 µM; in test [2] it was 1.68 µM; in test [3], 1.96 µM; in test [4] it was 11.7 µM. The TGI in test [1] is 9.16 µM; in test [2] it was 4.47 µM; in test [3], 47.2 µM; in test [4], > 100 µM.
Regarding `COc1ccc(C(=O)CC2(O)C(=O)Nc3c(Cl)ccc(Cl)c32)cc1` (stereo not given), the GI50 in test [1] is 2.43 µM; in test [2], 9.9 µM; in test [3] it was 1.66 µM; in test [4], 0.715 µM. The TGI in test [1] is > 70.9 µM; in test [2] it was > 100 µM; in test [3], > 24.6 µM; in test [4], 19.6 µM.
As for `CCOC(=O)c1cnc2ccc(Cl)cc2c1NCCCN(C)C`, the GI50 was 27.8 µM in test [1], 41.5 µM in test [2], 29.5 µM in test [3] and 25 µM in test [4]. Besides, the TGI in test [1], in test [2], in test [3] and in test [4] was > 100 µM each time.
Consider `C#Cc1cccc(NC(=O)Nc2ccccc2NC(=O)CCl)c1`, for which the GI50 is 20 µM in test [1], 31.1 µM in test [2], 17.1 µM in test [3] and 23.4 µM in test [4]. Further, the TGI in test [1] is 65.5 µM; in test [2], > 82.5 µM; in test [3] it was 56.1 µM; in test [4], 75.5 µM.
On to `CCOC(=O)c1cc2c(n1Cc1cccc(OC)c1)-c1oncc1CC2`, for which the GI50 was 0.61 µM in test [2], 0.742 µM in test [3] and 0.302 µM in test [4]. In addition, the TGI in test [2] worked out at 97.2 µM; in test [3], 8.16 µM; in test [4] it was 5.14 µM.
Take `COc1ccc([C@H]2c3cc(OC)c(OC)cc3C=C(C=O)C2CO)cc1OC` (stereo not given in full): the GI50 in test [1] is > 100 µM; in test [3], 2.72 µM; in test [4], 23.1 µM. For the same compound, the TGI is > 100 µM in test [1], 17.3 µM in test [3] and > 100 µM in test [4].
Take `Clc1ccc(Cl)c(N/N=C\c2c[nH]c3ccccc23)c1`: the results for the GI50 in test [1], in test [3] and in test [4] were 0.196 µM, 3.89 µM and 15.6 µM, respectively. The TGI in test [1] was 16.9 µM; in test [3], 23.1 µM; in test [4], 34.8 µM.
In the case of `COc1cc([C@@H]2c3cc4c(cc3[C@H](OC3OC5COC(c6ccccc6)OC5C(O)C3O)[C@H]3COC(=O)[C@H]23)OCO4)cc(OC)c1OC` (stereo not given in full), the GI50 in test [1] is 0.333 µM; in test [2], 1.73 µM; in test [3], 0.303 µM; in test [4] it was 0.4 µM. In addition, the TGI in test [1] is 1.99 µM; in test [2], 5.87 µM; in test [3] it was 1.67 µM; in test [4], 3 µM.
